Measured values reported in patent US7785585B2, “Compositions comprising sclareol or derivatives thereof and uses thereof” (Avoca, Inc., priority 2004, dated 2010).

Tested on: Human subcutaneous preadipocytes
Assay: Lipolysis assay (glycerol release) in differentiated human subcutaneous preadipocytes
Format: cell-based
Procedure: Human subcutaneous preadipocytes were obtained from human patients undergoing liposuction and pooled. The characteristics of the patients are shown below: • Sex: F • B.M.I.: 27.25 (avg.) • AGE: 43 (avg.) The human subcutaneous preadiposytes were designated lot #SL0028.
Preadipocytes were plated in 96-well plates and allowed to differentiate in the absence of compounds (e.g., sclareolide or sclareolide+GPM) for about two weeks. On the day of the assay, the culture medium was removed and the cells were washed gently with Krebs-Ringer buffer (KRB) in the following manner. 120 μl of medium in the wells was removed and 200 μl/well of KRB was added. The KRB in the wells was removed and another aliquot of 200 μl/well of the KRB was added. The wells were washed one row at a time to ensure that the cells remained moist and stayed attached to the plate.
Next, all of the KRB was removed and the cells were treated with 150 μl/well of the controls or 150 μl/well of the test compounds (resuspended in KRB with 1% BSA), either 1) sclareolide at […] or 2) sclareolide plus GPM at […], and incubated at 37° C. for five hours. The assay was performed in triplicate.
At the end of the treatment, 100 μl/well of the conditioned media was removed from the assay plate and added to the corresponding well of a new plate. […]
The optical density of each well of the new plate was measured at 540 nm.

CC1(C)CCC[C@]2(C)[C@H]3CC(=O)O[C@]3(C)CC[C@@H]12 [Sclareolide]
% Increase in Lipolysis over Control (Sclareolide concentration 10 μg/ml, 37° C. for five hours, glycerol assay, OD 540 nm, triplicate): 55% | Lipolysis over the control (in words) (sclareolide 10 μg/ml, sclareolide+GPM 7.5 μg/ml, five hours): significantly increased lipolysis over the control
